Assay results as given in patent publication US9296704B2, “Substituted pyrimidines as protein kinase inhibitors” (CELGENE AVILOMICS RESEARCH, INC., priority 2007, dated 2016).
pIC50: −log10 of the molar value.

Assays:
Format in all cases: biochemical
EGFR (T790M/L858R) = molecular target: T1, EGFR (T790M/L858R) (Homo sapiens, UniProt P00533, L858R/T790M); experiment: Omnia continuous-read kinase assay, EGFR (T790M/L858R); details: read-out: EGFR (T790M/L858R) inhibiton
T1 construct: purchased BPS Bioscience 40350
In short: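 Enzyme pre-incubated 30 min at 27 °C with compound, then ATP/Y12-Sox peptide added; fluorescence (ex360/em485) read continuously 60 min in 20 mM Tris pH 7.5, 5 mM MgCl2, 0.2 mM DTT. WT: 5 nM enzyme, […]; T790M/L858R: 3 nM enzyme, […]. IC50 from initial velocities, variable-slope fit.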

JAK3 = molecular target: T2, JAK3 (Homo sapiens, UniProt P52333); experiment: Omnia assay for potency against JAK3; details: read-out: JAK3 Inhibition
T2 sequence (P52333 1-1124): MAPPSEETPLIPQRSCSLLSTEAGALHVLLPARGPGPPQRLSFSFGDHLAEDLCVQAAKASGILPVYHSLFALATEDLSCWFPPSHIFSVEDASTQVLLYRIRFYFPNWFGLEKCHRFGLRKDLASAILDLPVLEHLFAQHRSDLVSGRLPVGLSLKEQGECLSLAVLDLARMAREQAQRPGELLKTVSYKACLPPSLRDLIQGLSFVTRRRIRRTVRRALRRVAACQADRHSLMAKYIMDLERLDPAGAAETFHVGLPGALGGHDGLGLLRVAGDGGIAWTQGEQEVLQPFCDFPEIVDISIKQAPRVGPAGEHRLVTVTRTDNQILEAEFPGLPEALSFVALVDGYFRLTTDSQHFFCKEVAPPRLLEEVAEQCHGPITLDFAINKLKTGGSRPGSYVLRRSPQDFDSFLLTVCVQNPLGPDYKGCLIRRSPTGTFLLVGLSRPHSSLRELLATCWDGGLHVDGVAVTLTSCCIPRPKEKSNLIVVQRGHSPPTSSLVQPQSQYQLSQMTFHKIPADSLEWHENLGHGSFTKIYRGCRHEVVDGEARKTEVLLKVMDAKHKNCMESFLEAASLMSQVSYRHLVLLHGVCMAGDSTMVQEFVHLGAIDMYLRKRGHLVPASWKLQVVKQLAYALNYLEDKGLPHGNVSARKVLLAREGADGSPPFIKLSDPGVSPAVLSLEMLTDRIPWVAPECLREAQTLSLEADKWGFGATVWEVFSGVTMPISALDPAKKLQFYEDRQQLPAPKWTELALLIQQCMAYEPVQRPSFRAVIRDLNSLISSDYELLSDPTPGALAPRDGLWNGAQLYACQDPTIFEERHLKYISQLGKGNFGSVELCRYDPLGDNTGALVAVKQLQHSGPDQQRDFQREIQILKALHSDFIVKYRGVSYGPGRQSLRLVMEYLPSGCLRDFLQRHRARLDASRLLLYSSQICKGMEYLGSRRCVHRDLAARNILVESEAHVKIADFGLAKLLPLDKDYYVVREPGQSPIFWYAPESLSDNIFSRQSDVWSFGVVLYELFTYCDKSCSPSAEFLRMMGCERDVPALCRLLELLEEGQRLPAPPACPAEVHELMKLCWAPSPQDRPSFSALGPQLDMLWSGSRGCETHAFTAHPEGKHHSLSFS
In short: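 Continuous-read Omnia kinase assay with 5 nM JAK3, 5 μM ATP (near apparent Km) and 5 μM Y12-Sox peptide in Tris pH 7.5/MgCl2 buffer; enzyme pre-incubated with compound 30 min at 27 °C. Fluorescence (ex360/em485) read over 60 min; initial velocities fitted against inhibitor concentration to give IC50.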

BMX = molecular target: T3, BMX (Homo sapiens, UniProt P51813); experiment: Omnia assay for potency against BMX; details: read-out: BMX inhibition
T3 sequence (P51813 1-675): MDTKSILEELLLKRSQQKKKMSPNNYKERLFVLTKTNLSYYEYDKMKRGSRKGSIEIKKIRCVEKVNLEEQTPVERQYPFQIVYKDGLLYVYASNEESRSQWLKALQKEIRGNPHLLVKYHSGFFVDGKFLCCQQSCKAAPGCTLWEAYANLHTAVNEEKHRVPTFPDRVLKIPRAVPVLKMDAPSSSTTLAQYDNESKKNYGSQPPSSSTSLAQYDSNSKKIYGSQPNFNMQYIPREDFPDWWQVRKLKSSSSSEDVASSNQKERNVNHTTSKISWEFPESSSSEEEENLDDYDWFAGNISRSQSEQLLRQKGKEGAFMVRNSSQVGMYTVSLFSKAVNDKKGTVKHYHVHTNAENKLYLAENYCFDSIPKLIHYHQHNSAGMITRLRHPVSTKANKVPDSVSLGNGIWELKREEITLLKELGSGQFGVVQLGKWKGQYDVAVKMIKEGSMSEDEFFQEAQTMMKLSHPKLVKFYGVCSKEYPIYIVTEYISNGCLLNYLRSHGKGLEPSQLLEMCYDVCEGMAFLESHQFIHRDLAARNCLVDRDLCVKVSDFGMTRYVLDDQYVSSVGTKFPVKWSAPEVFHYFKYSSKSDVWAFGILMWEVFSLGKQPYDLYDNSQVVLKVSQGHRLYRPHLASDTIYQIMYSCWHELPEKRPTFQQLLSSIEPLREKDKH

T1 sequence (P00533 25-1210 T790M/L858R): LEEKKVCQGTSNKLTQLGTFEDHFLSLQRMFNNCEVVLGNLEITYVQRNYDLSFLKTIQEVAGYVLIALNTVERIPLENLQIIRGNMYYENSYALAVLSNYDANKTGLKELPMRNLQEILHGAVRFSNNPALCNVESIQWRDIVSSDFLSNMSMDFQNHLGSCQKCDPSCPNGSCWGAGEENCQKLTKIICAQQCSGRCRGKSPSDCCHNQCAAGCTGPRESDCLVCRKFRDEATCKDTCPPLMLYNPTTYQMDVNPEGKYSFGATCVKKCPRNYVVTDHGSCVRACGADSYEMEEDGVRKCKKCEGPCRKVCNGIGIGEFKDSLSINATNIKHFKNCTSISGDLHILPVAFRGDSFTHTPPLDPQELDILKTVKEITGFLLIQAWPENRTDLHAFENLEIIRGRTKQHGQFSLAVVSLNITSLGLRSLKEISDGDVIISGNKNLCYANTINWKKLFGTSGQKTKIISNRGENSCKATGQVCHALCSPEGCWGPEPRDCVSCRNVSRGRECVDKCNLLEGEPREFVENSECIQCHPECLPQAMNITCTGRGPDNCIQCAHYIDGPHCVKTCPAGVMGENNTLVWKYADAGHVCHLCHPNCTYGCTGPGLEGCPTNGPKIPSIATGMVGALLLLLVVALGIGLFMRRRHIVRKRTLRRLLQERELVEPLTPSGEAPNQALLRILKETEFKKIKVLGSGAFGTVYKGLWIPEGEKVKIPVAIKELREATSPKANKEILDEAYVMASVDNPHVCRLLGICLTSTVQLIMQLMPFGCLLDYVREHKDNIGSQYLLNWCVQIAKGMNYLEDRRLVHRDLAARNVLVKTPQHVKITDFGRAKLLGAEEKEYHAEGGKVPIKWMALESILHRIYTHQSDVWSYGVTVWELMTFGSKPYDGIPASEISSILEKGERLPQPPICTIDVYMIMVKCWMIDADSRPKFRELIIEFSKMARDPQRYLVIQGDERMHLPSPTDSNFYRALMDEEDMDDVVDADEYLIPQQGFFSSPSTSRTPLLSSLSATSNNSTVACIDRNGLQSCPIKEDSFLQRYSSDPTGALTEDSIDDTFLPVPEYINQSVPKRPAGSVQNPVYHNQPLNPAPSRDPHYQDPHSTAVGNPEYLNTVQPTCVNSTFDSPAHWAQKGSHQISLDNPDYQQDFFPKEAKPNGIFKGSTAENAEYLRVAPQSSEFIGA

| Compound | pIC50 (EGFR (T790M/L858R)) | pIC50 (JAK3) | pIC50 (BMX) |
| --- | --- | --- | --- |
| C=CC(=O)Nc1cccc(Nc2cc(Nc3ccc(Oc4ccccc4)cc3)ncn2)c1 [I-13, N-{3-[6-(4-phenoxyphenylamino)-pyrimidin-4-ylamino]phenyl}-2 propenamide] | 7.00 to 8.00 | 6.00 to 7.00 | ≥ 8.00 |
| C=CC(=O)Nc1cccc(Nc2cc(Nc3ccc(Oc4ccccc4)cc3)ncn2)n1 [I-63] | ≥ 8.00 | 7.00 to 8.00 | ≥ 8.00 |
| C=CC(=O)Nc1cccc(Nc2cc(Oc3ccc(Oc4ccccc4)cc3)ncn2)n1 [I-66] | 6.00 to 7.00 | 6.00 to 7.00 | ≥ 8.00 |
| Cc1cccc(Oc2cc(Nc3cccc(NC(=O)/C=C/CN(C)C)n3)ncn2)c1 [I-81] |  | ≥ 8.00 | ≥ 8.00 |
| C=CC(=O)Nc1cccc(Nc2cc(Nc3ccccc3)ncn2)n1 [I-94] | ≥ 8.00 | ≥ 8.00 | ≥ 8.00 |

Further lines, results first:

| pIC50 (EGFR (T790M/L858R)) | pIC50 (JAK3) | pIC50 (BMX) | Compound |
| --- | --- | --- | --- |
| ≥ 8.00 | ≥ 8.00 |  | C=CC(=O)Nc1cccc(Nc2cc(Nc3cccc(Br)c3)ncn2)c1 [I-1, N-{3-[6-(3-bromophenylamino)-pyrimidin-4-ylamino]-phenyl}-2-propenamide] |
|  | ≥ 8.00 | 7.00 to 8.00 | CN(C)C/C=C/C(=O)Nc1cccc(Nc2cc(Nc3ccc(Oc4ccccc4)cc3)ncn2)n1 [I-64, (E)-4-(dimethylamino)-N-(6-(6-(4-phenoxyphenylamino)pyrimidin-4-ylamino)pyridine-2-yl)but-2-enamide] |
| 7.00 to 8.00 | ≥ 8.00 | ≥ 8.00 | C=CC(=O)Nc1cccc(Nc2cc(Oc3cccc(C)c3)ncn2)n1 [I-65] |
|  | ≥ 8.00 | 7.00 to 8.00 | C=CC(=O)N(C)c1cccc(Nc2cc(Nc3ccc(Oc4ccccc4)cc3)ncn2)n1 [I-78, N-methyl-N-(6-(6-(4-phenoxyphenylamino)pyrimidin-4-ylamino)pyridin-2-yl)acrylamide] |
|  | ≥ 8.00 | ≥ 8.00 | CN(C)C/C=C/C(=O)N(C)c1cccc(Nc2cc(Nc3ccc(Oc4ccccc4)cc3)ncn2)n1 [I-79, (E)-4-(dimethylamino)-N-methyl-N-(6-(6-(4-phenoxyphenylamino)pyrimidin-4-ylamino)pyridine-2-yl)but-2-enamide] |
